Consider two compounds from US20110104301A1, “METHODS OF REDUCING PAIN AND INFLAMMATION” (Georgetown University, A Congressionally Chartered …, priority 2008, published 2011).

Structures are written as SMILES. “Also recorded” adds a separate entry of the source.

Experiment [1] addresses T1, TRPA1 (Rattus norvegicus, UniProt Q6RI86).
T1 construct: expressed in transfected cells; host or cells: HEK 293F
The experiment can be described thus: Single-channel recordings of TRPA1 (outside-out / cell-attached patches). In kind it is cell-based. Particulars: for TRPA1 single-channel conductance in presence of VGA: 0.23 mM isoflurane, 0.9 mM desflurane, reduced from ≈110 pS; for Single TRPA1 channel activity: cell-free patches. On the procedure:
(§1) Electrophysiology. HEK 293F cells were transfected with rat TRPV1, TRPA1, and TRPM8 (gift of David Julius, University of California, San Francisco). Dorsal root ganglia were cultured from adult mice (C57B16/J wild type and TRPV1-null, and mixed B6/129 background TRPA1-null) in Neurobasal +2% B-27 medium (Invitrogen), 0.1% L-glutamine and 1% penicillin/streptomycin. Whole-cell and single-channel patch-clamp recordings were performed by using an EPC8 amplifier (HEKA Electronics). For whole-cell and excised patch recordings the bath solution contained 140 mMNaCl, 4 mMKCl, 1 mMMgCl2, 1.2 mMCaCl2, 10 mMHepes, 10 mM glucose, pH 7.3. For cell-attached experiments, NaCl was replaced with KCl in the bath solution. The pipette solution contained 140 mM NaCl or KCl, 10 mM Hepes, 5 mM EGTA, pH 7.3. For neuronal recording NaCl was replaced with K-gluconate (plus 1 mMATP, 0.2 mM GTP). Solutions were applied via a gravity-fed system. Separate outlets were used to apply capsaicin and AITC solutions to avoid contamination. Voltage-dependent properties were measured as described in Matt and Ahern, J. Physiol. 585:469-482 (2007). Current-voltage measurements comprised a 200-ms ramp from −150 mV to +200 mV. The baseline currents under control conditions were subtracted. For cell-attached experiments, peak amplitudes were measured from all-points histograms, and open probability was measured as NPo>750 ms. Defolliculated Xenopus laevis oocytes were injected with ≈10 ng of hTRPA1 (gift of Ardem Patapoutian, The Scripps Research Institute, La Jolla, Calif.). Oocytes were placed in a Perspex chamber and continuously superfused (5 ml min^−1) with Ca^2+-free solution containing 100 mM NaCl, 2.5 mM KCl, 5 mM Hepes, 1 mM MgC12 and titrated to pH 7.3 with ˜5 mM NaOH.

For experiment [2] the following is noted: rat at 37° C.; cited from earlier work.
Experiment [3] addresses T1, TRPA1. The experiment can be described thus: Whole-cell patch-clamp of TRPA1-expressing HEK293 cells. The experiment is classed as cell-based. Particulars: for Activation of TRPA1 currents by VGAs: 0.9 mM, voltage-clamped HEK293 cells. On the procedure:
Electrophysiology. […] Whole-cell and single-channel patch-clamp recordings were performed by using an EPC8 amplifier (HEKA Electronics). For whole-cell and excised patch recordings the bath solution contained 140 mMNaCl, 4 mMKCl, 1 mMMgCl2, 1.2 mMCaCl2, 10 mMHepes, 10 mM glucose, pH 7.3. For cell-attached experiments, NaCl was replaced with KCl in the bath solution. […] For neuronal recording NaCl was replaced with K-gluconate (plus 1 mMATP, 0.2 mM GTP). Solutions were applied via a gravity-fed system. […] Voltage-dependent properties were measured as described in Matt and Ahern, J. Physiol. […] The baseline currents under control conditions were subtracted. For cell-attached experiments, peak amplitudes were measured from all-points histograms, and open probability was measured as NPo>750 ms. Defolliculated Xenopus laevis oocytes were injected with ≈10 ng of hTRPA1 (gift of Ardem Patapoutian, The Scripps Research Institute, La Jolla, Calif.).
Volatile General Anesthetics and Chemicals. Saturated stock solutions of volatile GAs were prepared in gas-tight bottles by dissolving excess anesthetic agents in bath solutions overnight. From these stock solutions fresh dilutions were made up every 40-60 min. Concentrations of GAs in the bath solutions were verified by using a modified head-space gas chromatography method. […] Alcohols with <6 carbons were dissolved directly into extracellular solution, and alcohols containing 6 carbons or more were dissolved in DMSO and then diluted into extracellular solutions that were sonicated for 20 min. All other drugs were prepared as stock solutions in DMSO or ethanol and diluted into physiological solution before experiments.
In general terms: The patch-clamp technique gives a direct electrical read-out from membranes.

Another experiment deals with TRPV1 (Rattus norvegicus, UniProt O35433). The experiment can be described thus: Voltage-clamp of TRPV1-expressing Xenopus oocytes (capsaicin, protons, heat). Particulars: for Temperature threshold of TRPV1 heat activation: control ~46° C. In kind it is cell-based. On the procedure: Oocyte electrophysiology. […] Oocytes were placed in a Perspex chamber and continuously superfused (5 ml min-1) with Ca2+-free solution containing (in mM): 100 NaCl, 2.5 KCl, 5 HEPES, 1 MgCl2 and titrated to pH 7.3 with ˜5 mM NaOH. For solutions <pH 6.0, HEPES was replaced with either 5 mM MES or 5 mM sodium citrate. Oocytes were routinely voltage-clamped at −60 mV at 22-23° C. For heat activation, bath temperature was raised from ˜22-50° C. over ˜100 s using an in-line solution heater (Warner Instruments). The temperature was continuously monitored with a probe placed within 2 mm of the oocyte. The temperature-activation threshold was defined as a 20% increase in current above baseline.
TRPV1, sequence (O35433 whole entry, the tested form may be a part): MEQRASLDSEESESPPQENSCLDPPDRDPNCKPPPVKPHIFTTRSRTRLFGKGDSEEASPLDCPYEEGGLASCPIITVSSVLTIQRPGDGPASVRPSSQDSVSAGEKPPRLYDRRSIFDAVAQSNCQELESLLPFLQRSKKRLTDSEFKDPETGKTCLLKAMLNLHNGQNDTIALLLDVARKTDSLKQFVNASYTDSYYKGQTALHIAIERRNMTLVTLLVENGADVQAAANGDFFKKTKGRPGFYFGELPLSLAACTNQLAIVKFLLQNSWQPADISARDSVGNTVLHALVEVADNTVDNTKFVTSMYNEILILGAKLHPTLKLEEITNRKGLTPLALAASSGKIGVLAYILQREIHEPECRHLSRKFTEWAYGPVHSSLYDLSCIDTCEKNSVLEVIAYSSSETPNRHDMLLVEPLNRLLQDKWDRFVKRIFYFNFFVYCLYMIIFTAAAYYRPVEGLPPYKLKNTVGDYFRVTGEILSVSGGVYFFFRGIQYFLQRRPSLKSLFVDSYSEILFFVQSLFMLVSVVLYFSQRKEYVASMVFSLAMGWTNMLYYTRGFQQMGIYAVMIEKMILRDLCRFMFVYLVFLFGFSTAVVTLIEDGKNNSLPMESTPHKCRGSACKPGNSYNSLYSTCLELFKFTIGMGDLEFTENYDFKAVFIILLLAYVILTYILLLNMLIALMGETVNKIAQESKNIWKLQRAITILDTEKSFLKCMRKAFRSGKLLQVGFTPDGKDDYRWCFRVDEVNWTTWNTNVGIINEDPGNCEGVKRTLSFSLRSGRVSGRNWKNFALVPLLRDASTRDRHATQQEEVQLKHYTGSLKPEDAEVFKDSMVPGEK
Volatile general anesthetics. Saturated stock solutions of volatile general anesthetics (VGAs) were prepared in gas-tight bottles by dissolving excess anesthetic agents in bath solutions and stirring vigorously overnight. From these stock solutions fresh dilutions were made up every 40-60 minutes. Concentrations of volatile anesthetics in the bath solutions were verified using a modified head-space gas chromatography method. The gas chromatograph (Carlo Erba, Milan, Italy) was equipped with a flame ionization detector (FID) and mass spectrometer. The carrier gas was hydrogen (60 kPa column head pressure) and the fused silica capillary column, coated with polysiloxane SE-30, was 25 m×0.25 mm. Injector temperature was 250° C., FID temperature was 300° C. and the oven was maintained at 90° C. Standards were prepared from a mixture of halothane, isoflurane, and sevoflurane dissolved in acetonitrile with enflurane as an internal standard.

For the next experiment, the target named is T2, hTRPA1 (Homo sapiens, UniProt O75762).
T2 construct: expressed in transfected cells; host or cells: Xenopus laevis oocytes (injected)
T2 sequence (O75762 whole entry): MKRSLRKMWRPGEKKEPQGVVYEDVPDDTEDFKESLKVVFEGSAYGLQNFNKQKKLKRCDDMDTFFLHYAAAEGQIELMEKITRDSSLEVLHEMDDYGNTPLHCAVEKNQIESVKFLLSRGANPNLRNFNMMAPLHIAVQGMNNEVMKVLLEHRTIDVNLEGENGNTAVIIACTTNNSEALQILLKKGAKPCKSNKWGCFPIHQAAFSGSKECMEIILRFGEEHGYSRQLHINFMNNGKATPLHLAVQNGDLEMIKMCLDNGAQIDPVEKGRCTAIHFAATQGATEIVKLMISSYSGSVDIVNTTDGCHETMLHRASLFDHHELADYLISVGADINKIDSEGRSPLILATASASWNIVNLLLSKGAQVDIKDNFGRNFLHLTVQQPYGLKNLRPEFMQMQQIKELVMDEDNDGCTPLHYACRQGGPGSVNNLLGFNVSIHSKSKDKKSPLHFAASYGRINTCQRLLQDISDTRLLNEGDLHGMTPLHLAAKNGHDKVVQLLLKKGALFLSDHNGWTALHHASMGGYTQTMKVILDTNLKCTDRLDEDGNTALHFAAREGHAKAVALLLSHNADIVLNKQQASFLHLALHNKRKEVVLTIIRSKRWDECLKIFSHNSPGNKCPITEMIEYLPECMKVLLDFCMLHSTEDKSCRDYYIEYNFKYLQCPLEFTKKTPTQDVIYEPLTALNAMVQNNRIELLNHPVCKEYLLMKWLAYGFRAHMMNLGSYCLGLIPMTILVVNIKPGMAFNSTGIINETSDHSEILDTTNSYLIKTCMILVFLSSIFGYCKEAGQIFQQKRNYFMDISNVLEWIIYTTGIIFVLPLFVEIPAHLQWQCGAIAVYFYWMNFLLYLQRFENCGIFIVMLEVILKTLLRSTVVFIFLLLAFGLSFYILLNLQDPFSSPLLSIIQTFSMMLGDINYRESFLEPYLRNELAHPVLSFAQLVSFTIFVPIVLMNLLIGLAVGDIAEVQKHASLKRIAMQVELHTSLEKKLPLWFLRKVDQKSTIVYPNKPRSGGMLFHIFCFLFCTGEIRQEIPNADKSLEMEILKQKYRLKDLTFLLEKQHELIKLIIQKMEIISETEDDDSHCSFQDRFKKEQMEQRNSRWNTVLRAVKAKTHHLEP
The experiment can be described thus: AITC-evoked currents in TRPA1-expressing Xenopus oocytes. To be noted: VGAs 0.5-0.65 mM, AITC 10 μM. The experiment is classed as cell-based. On the procedure:
as §1

T1 sequence (Q6RI86 whole entry): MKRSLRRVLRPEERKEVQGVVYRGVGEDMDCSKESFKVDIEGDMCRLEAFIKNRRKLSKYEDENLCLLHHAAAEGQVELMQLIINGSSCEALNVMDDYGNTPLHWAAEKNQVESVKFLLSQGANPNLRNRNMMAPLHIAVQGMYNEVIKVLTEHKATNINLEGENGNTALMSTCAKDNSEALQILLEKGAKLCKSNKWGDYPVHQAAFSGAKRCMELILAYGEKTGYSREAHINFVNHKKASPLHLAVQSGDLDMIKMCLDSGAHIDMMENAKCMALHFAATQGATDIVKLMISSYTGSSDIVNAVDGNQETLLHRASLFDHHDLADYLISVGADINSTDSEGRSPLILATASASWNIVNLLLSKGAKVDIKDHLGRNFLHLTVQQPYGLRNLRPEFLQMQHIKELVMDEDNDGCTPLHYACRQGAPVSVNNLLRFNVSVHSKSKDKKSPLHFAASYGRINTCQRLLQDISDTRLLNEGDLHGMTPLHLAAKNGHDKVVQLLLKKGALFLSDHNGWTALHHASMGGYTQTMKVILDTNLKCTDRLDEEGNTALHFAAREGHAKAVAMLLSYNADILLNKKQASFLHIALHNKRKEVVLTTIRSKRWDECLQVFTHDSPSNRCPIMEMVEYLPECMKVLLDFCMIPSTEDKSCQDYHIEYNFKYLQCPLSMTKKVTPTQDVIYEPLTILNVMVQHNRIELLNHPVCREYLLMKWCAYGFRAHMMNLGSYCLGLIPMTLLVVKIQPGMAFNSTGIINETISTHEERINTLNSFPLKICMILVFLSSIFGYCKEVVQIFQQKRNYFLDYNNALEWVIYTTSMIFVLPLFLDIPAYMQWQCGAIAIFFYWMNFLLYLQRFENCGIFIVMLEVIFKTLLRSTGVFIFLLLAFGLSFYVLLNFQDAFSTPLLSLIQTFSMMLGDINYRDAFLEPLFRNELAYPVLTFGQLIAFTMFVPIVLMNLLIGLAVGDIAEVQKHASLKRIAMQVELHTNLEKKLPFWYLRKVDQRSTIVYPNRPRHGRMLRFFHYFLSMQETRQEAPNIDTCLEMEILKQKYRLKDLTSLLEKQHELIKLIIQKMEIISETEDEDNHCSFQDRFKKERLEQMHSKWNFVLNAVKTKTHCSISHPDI

For `FC(F)OC(F)C(F)(F)F` (stereo not drawn) [desflurane], at TRPA1 [1], the “TRPA1 single-channel conductance in presence of VGA” value is given as “≈ 80 pS” and the “Single TRPA1 channel activity” value was “enhanced single-channel gating; also recorded: activate single TRPA1 channels”. Besides, at TRPA1 [1] (cell-attached patches), the “Increase in maximal open probability of TRPA1” value is above 6 fold. The “V1/2 of TRPA1 open probability in presence of desflurane” value on TRPA1 [1] (cell-attached patches, shifted from 72.1 mV) is on record as 42.5 mV. Also, in experiment [2], the “1 MAC equivalent aqueous concentration (published conversion factor)” value is given as 0.51 mM. The “Activation of TRPA1 currents by VGAs” value on TRPA1 [3] is reported as “robustly activated”. The “Enhancement of proton-evoked currents compared with isoflurane and sevoflurane” value at TRPV1 (VGAs 0.6 mM, pH 5.5) was “significantly more”. In addition, the “Effect on AITC-evoked currents” value at hTRPA1 is recorded as “markedly enhanced”.

A word on the EC50: it is the concentration giving half of the maximal effect. `FC(F)OC(Cl)C(F)(F)F` (stereo not drawn) [isoflurane]: on TRPA1 [1], the “TRPA1 single-channel conductance in presence of VGA” value is “≈ 60 pS” and the “Single TRPA1 channel activity” value is “enhanced single-channel gating; also recorded: activate single TRPA1 channels”. Further, in experiment [2], the “1 MAC equivalent aqueous concentration (published conversion factor)” value is 0.31 mM. Besides, at TRPA1 [3], the “Activation of TRPA1 after AITC treatment” value is “failed to activate” and the “Activation of TRPA1 currents by VGAs” value is reported as “produced inward currents; also recorded: robustly activated”. Besides, at TRPA1 [3] (2.7 mM, additional blocking mechanism), the “TRPA1 response at high concentration” value is reported as “reduced”. Besides, on TRPA1 [3] (HEK293 cells), the “EC50 of TRPA1 activation expressed in MAC” value worked out at 0.57 MAC and the “Hill coefficient of TRPA1 activation” value is listed as 1.6±0.2. Moreover, the concentration giving a half-maximal response (EC50) on TRPA1 [3] (HEK293 cells, read-out: EC50 of TRPA1 activation) was determined as 180 ± 20 µM. The “Effect on TRPA1 when applied together with saturating octanol” value at TRPA1 [3] (isoflurane 0.9 mM + octanol 1.8 mM) is “negligible effects”. The “Activation of TRPA1 at holding potential −50 mV” value on TRPA1 [3] (isoflurane 0.9 mM, octanol 1 mM) was “selectively activated”. Further, on TRPA1 [3] (reduction at higher concentrations), the “Concentration at peak of bimodal dose-response relationship” value was “≈ 1 mM”. Moreover, the “Temperature threshold of TRPV1 heat activation” value at TRPV1 (0.5 mM isoflurane) stood at 43 °C. Moreover, the “Temperature threshold of TRPV1 heat activation” value at TRPV1 (0.9 mM isoflurane) was 40 °C. For the same compound, at TRPV1 (isoflurane 0.9 mM), the “Enhancement of maximal proton-evoked current” value is “approximately 3 fold”. The “Temperature threshold of TRPV1 heat activation after PDBu application” value at TRPV1 (isoflurane 0.9 mM after PDBu, control 45.9±0.2) turned out to be 32.8±0.8 °C. The “Enhancement of currents evoked by pH 5.5 solution” value at TRPV1 (isoflurane 0.9 mM, n=4) is listed as “approximately 10 fold”. The “Maximal proton response as % of 10 μM capsaicin” value on TRPV1 (isoflurane 0.9 mM, control 14.3%) was determined as 32.2%. Besides, at hTRPA1, the “Effect on AITC-evoked currents” value is “markedly enhanced”.
